According to patent US20070202578A1, “Production of globosides oligosaccharides using metabolically engineered microorganisms” (priority 2005, published 2007):

Target: T1, LgtD protein (Haemophilus influenzae, UniProt Q57287)
T1 construct: made in house; host or cells: strain overexpressing lgtD; E. coli K12 derivative is inferred from the lgtD strains described, e.g. TA21 with pACT3-lgtD; used as crude extract
Assay: enzymatic assays with crude extracts from a strain overexpressing the lgtD gene (donor Km with globotriose or globotetraose as acceptor)
Assay type: biochemical

T1 sequence (Q57287 whole entry): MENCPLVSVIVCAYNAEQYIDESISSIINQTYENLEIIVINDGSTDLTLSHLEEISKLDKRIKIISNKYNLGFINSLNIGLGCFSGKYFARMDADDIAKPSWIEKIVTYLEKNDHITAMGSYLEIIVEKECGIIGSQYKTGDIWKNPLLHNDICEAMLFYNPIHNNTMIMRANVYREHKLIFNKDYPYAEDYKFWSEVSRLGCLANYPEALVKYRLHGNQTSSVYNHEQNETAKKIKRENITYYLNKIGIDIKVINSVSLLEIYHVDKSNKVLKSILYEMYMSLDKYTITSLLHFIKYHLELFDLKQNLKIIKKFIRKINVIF

Structure (SMILES): CC(=O)N[C@H]1[C@@H](OP(=O)(O)OP(=O)(O)OC[C@H]2O[C@@H](n3ccc(=O)[nH]c3=O)[C@H](O)[C@@H]2O)O[C@H](CO)[C@H](O)[C@@H]1O [UDP-GalNAc]
- Km for UDP-GalNAc, fold lower than for UDP-Gal (globotriose as the acceptor): 6 fold
- fold increase in the Km for UDP-GalNAc (replacement of globotriose by globotetraose as the acceptor): 20 fold
